Our source for the TGI and GI50 values is PubChem BioAssay (NCI).

Some test systems named below: CAKI-1 renal; CCRF-CEM leukemia; HT29 colon; MALME-3M melanoma; MDA-MB-231 breast; MOLT-4 leukemia; OVCAR-3 ovarian; RXF 393 renal; SK-MEL-28 melanoma; SK-OV-3 ovarian; T-47D breast.
Assay in all cases: growth of human tumour cells (NCI), 48 h

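How tested: cells in 96-well plates exposed to compound for 48 hours at five concentrations. At the GI50, growth is halved. TGI: concentration producing complete growth inhibition.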

In the case of `Nc1nn2c(nc(N)c3c(N)[nH]nc32)c1N=Nc1ccc(Br)cc1`, the TGI is more than 100 µM in the assay with CAKI-1 renal; more than 100 µM in the assay with CCRF-CEM leukemia; more than 100 µM with HT29 colon; 18.4 µM in the assay on MALME-3M melanoma; 1.87 µM in the assay with MDA-MB-231 breast; more than 25.9 µM in the assay with MOLT-4 leukemia. The TGI in the assay with OVCAR-3 ovarian is more than 78 µM; with RXF 393 renal, more than 100 µM; in the assay on SK-MEL-28 melanoma it was more than 94.2 µM; with SK-OV-3 ovarian, more than 100 µM.

Take `O=C1CCCCCCCCCCC1CN1CCCCC1` (configuration not stated): the TGI in the assay on CCRF-CEM leukemia, in the assay on HT29 colon, with MALME-3M melanoma, in the assay on MOLT-4 leukemia, with OVCAR-3 ovarian and in the assay with SK-MEL-28 melanoma was more than 100 µM throughout.

Turning to `N#Cc1c(-c2ccccc2)[nH]c(=O)n(C2OC(CO)C(O)C(O)C2O)c1=O` (configuration not stated), the TGI in the assay with CAKI-1 renal, with CCRF-CEM leukemia, in the assay on HT29 colon, in the assay on MDA-MB-231 breast, in the assay with MOLT-4 leukemia and in the assay on OVCAR-3 ovarian was more than 100 µM in each case. The TGI in the assay on RXF 393 renal, with SK-MEL-28 melanoma, in the assay with SK-OV-3 ovarian and in the assay on T-47D breast was more than 100 µM in each case.

With `Nc1nc(N)c2cc(NCc3ccc(Cl)c(Cl)c3)ccc2n1`, the GI50 is 1.37 µM in the assay on CAKI-1 renal; 0.813 µM in the assay on HT29 colon; 1.3 µM with MDA-MB-231 breast; 1.03 µM in the assay with OVCAR-3 ovarian; 1.13 µM with RXF 393 renal; 1.77 µM in the assay on SK-MEL-28 melanoma. The GI50 with T-47D breast was 1.72 µM. The TGI in the assay on CAKI-1 renal came out at 2.71 µM; in the assay on HT29 colon, 2.05 µM; with MDA-MB-231 breast, 2.58 µM; in the assay on OVCAR-3 ovarian it was 2.24 µM; in the assay with RXF 393 renal it was 2.34 µM; with SK-MEL-28 melanoma, 3.15 µM. Further, in the assay with T-47D breast, the TGI was 3.28 µM.

Turning to `O=C(NCc1cccc2ccccc12)N/N=C\c1ccc(Cl)cc1`, the TGI in the assay on CAKI-1 renal, in the assay with CCRF-CEM leukemia, in the assay on HT29 colon, in the assay on MALME-3M melanoma, in the assay on MOLT-4 leukemia and with OVCAR-3 ovarian was more than 100 µM each time. The TGI in the assay on RXF 393 renal, with SK-MEL-28 melanoma and with T-47D breast was more than 100 µM throughout.

`CCCCCCCCCCCCCCCCOC[C@@H](COC(c1ccccc1)(c1ccccc1)c1ccccc1)O[P+](=S)OC` (some centres not stated): the TGI was 23.8 µM in the assay with CAKI-1 renal; 30.1 µM in the assay with CCRF-CEM leukemia; 35.2 µM with HT29 colon; 5.49 µM with MDA-MB-231 breast; 53.1 µM in the assay on MOLT-4 leukemia; 31.8 µM in the assay with OVCAR-3 ovarian. Also, the TGI was 22.7 µM in the assay with RXF 393 renal, 19.8 µM in the assay with SK-OV-3 ovarian and 45 µM in the assay on T-47D breast.

For the molecule `COc1ccc(CN=C(N)N)c2ccccc12`, the TGI in the assay with CAKI-1 renal was more than 100 µM; in the assay on CCRF-CEM leukemia, more than 100 µM; with HT29 colon, more than 100 µM; in the assay with MALME-3M melanoma, 34.7 µM; with MOLT-4 leukemia, more than 100 µM; in the assay on OVCAR-3 ovarian, more than 100 µM. The TGI is more than 100 µM in the assay with RXF 393 renal, 86.5 µM in the assay on SK-MEL-28 melanoma, more than 100 µM in the assay on SK-OV-3 ovarian and more than 100 µM in the assay with T-47D breast.

Consider `CCNC(=O)c1c(O)c2ccccc2[nH]c1=O`, for which the TGI in the assay with CAKI-1 renal, with CCRF-CEM leukemia, in the assay on HT29 colon, with MALME-3M melanoma, in the assay on MDA-MB-231 breast and in the assay on MOLT-4 leukemia was more than 100 µM each time. Moreover, the TGI in the assay with OVCAR-3 ovarian, in the assay with RXF 393 renal and with SK-MEL-28 melanoma was more than 100 µM in each case.

`NNC(=O)c1nnn(CCc2ccccc2)c1C(=O)NN`: the TGI in the assay on CAKI-1 renal, with CCRF-CEM leukemia, in the assay with HT29 colon, with MALME-3M melanoma, in the assay on MDA-MB-231 breast and with MOLT-4 leukemia was more than 100 µM in each case. Also, the TGI with OVCAR-3 ovarian and with SK-MEL-28 melanoma was more than 100 µM each time.

Consider `CC(C)=CCC/C(C)=C/CC/C(C)=C/CC/C(=C/CC/C(C)=C\CC/C(C)=C/CC/C(C)=C/CC/C(C)=C/Cc1cc(O)ccc1O)CO`, for which the TGI with CAKI-1 renal was 4.82 µM; in the assay with CCRF-CEM leukemia, more than 30.7 µM; with HT29 colon it was 18.9 µM; in the assay with MALME-3M melanoma, 6.37 µM; in the assay on MDA-MB-231 breast it was more than 78.8 µM; with MOLT-4 leukemia, more than 59.5 µM. Besides, the TGI in the assay on OVCAR-3 ovarian stood at 16.5 µM; in the assay with RXF 393 renal, 2 µM; in the assay on SK-MEL-28 melanoma, 10.9 µM; with SK-OV-3 ovarian, 40.7 µM.

For the molecule `Cc1cc(=O)oc2c(C)c(OCCCOc3ccc4c(C)cc(=O)oc4c3C)ccc12`, the TGI in the assay on CAKI-1 renal, in the assay with CCRF-CEM leukemia, with HT29 colon, with MALME-3M melanoma, in the assay with MOLT-4 leukemia and in the assay with OVCAR-3 ovarian was more than 100 µM throughout. For the same molecule, the TGI in the assay on SK-MEL-28 melanoma and in the assay with SK-OV-3 ovarian was more than 100 µM each time.

`O=CC12C3CCC1C2C(=O)C3` (configuration not stated): the TGI in the assay on CAKI-1 renal, in the assay with CCRF-CEM leukemia, with HT29 colon, in the assay with MALME-3M melanoma, in the assay on MDA-MB-231 breast and in the assay on MOLT-4 leukemia was more than 100 µM in each case. Further, the TGI in the assay with OVCAR-3 ovarian, in the assay with RXF 393 renal, with SK-MEL-28 melanoma and in the assay on SK-OV-3 ovarian was more than 100 µM each time.

In the case of `CC1=NN(c2nc(N)nc(CC#N)n2)C(C)(C)C1`, the TGI in the assay with CAKI-1 renal, in the assay on CCRF-CEM leukemia, with HT29 colon, in the assay on MDA-MB-231 breast, in the assay on MOLT-4 leukemia and with RXF 393 renal was more than 100 µM throughout. The TGI in the assay with SK-MEL-28 melanoma, with SK-OV-3 ovarian and in the assay with T-47D breast was more than 100 µM each time.

Consider `S=C(c1c[nH]c2ccccc12)N1CCN(Cc2ccccc2)CC1`, for which the TGI was 56.1 µM with CAKI-1 renal; more than 100 µM with CCRF-CEM leukemia; 30.1 µM in the assay on HT29 colon; 33.7 µM in the assay with MALME-3M melanoma; 32.9 µM in the assay on MDA-MB-231 breast; 47.5 µM in the assay on MOLT-4 leukemia. The TGI came to 29.4 µM with OVCAR-3 ovarian, 30.9 µM in the assay with RXF 393 renal, 31 µM in the assay with SK-MEL-28 melanoma and 51.4 µM in the assay with SK-OV-3 ovarian.
